Results reported in ChEMBL document CHEMBL1201862, “PubChem BioAssay data set” (2004).
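Growth conditions: 96-well plates. Treatment: test compound, 48 hours, 5 concentrations. Analysis: linear interpolation between bracketing concentrations; unreached endpoints set to highest concentration. Here, GI50 denotes the concentration required for 50% inhibition of growth.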 Calls of active or inactive are those of the source. Cut-off read from the data, not from the text of the source: active = GI50 up to about 1.1 µM and inactive = higher.

Columns and labels:
Assay in all cases: NCI tumour cell line growth inhibition, 48 h
SR = system: SR
MCF7 = system: MCF7
SK-MEL-28 = system: SK-MEL-28
BT-549 = system: BT-549
IGROV-1 = system: IGROV-1
M14 = system: M14
HCT-116 = system: HCT-116
PC-3 = system: PC-3
SW-620 = system: SW-620
OVCAR-5 = system: OVCAR-5
RPMI-8226 = system: RPMI-8226
HOP-62 = system: HOP-62
K562 = system: K562
U-251 = system: U-251
Malme-3M = system: Malme-3M
COLO 205 = system: COLO 205
HOP-92 = system: HOP-92
A498 = system: A498
MDA-MB-231 = system: MDA-MB-231

Structure (SMILES) | GI50 (SR) | GI50 (MCF7) | GI50 (SK-MEL-28) | GI50 (BT-549) | GI50 (IGROV-1) | GI50 (M14) | GI50 (HCT-116) | GI50 (PC-3) | GI50 (SW-620) | GI50 (OVCAR-5) | GI50 (RPMI-8226) | GI50 (HOP-62) | GI50 (K562) | GI50 (U-251) | GI50 (Malme-3M) | GI50 (COLO 205) | GI50 (HOP-92) | GI50 (A498) | GI50 (MDA-MB-231)
O=C(CCCn1ccnc1[N+](=O)[O-])NCCn1cnc([N+](=O)[O-])c1 | > 100 µM (inactive) | > 100 µM (inactive) | > 100 µM (inactive) | > 100 µM (inactive) | > 100 µM (inactive) | > 100 µM (inactive) | > 100 µM (inactive) | > 100 µM (inactive) | > 100 µM (inactive) | > 100 µM (inactive) | > 100 µM (inactive) | > 100 µM (inactive) | > 100 µM (inactive) | > 100 µM (inactive) | > 100 µM (inactive) | > 100 µM (inactive) | – | – | –
C/C(=C\c1ccc2c(c1)OCO2)[N+](=O)[O-] | 0.323 µM (active) | 0.205 µM (active) | 2.74 µM (inactive) | – | 2.34 µM (inactive) | 3.65 µM (inactive) | 7.16 µM (inactive) | 2.64 µM (inactive) | 2.59 µM (inactive) | 3.96 µM (inactive) | 0.225 µM (active) | 3.56 µM (inactive) | 1.64 µM (inactive) | 1.79 µM (inactive) | 2.84 µM (inactive) | 1.66 µM (inactive) | 2.51 µM (inactive) | 7.23 µM (inactive) | 6.49 µM (inactive)
CCOC1OCCCC1Br (stereo unspecified) | > 100 µM (inactive) | > 100 µM (inactive) | > 100 µM (inactive) | – | > 100 µM (inactive) | > 100 µM (inactive) | > 100 µM (inactive) | > 100 µM (inactive) | > 100 µM (inactive) | > 100 µM (inactive) | > 100 µM (inactive) | > 100 µM (inactive) | > 100 µM (inactive) | – | > 100 µM (inactive) | > 100 µM (inactive) | > 100 µM (inactive) | > 100 µM (inactive) | > 100 µM (inactive)
C/C(=N/NC(=S)Nc1ccc(Cl)cc1)c1cccc(/C(C)=N\NC(=S)Nc2ccc(Cl)cc2)n1 | 1.19 µM (inactive) | 1.93 µM (inactive) | 23.2 µM (inactive) | – | 1.74 µM (inactive) | 1.79 µM (inactive) | 2.9 µM (inactive) | 3.47 µM (inactive) | 4.12 µM (inactive) | 20 µM (inactive) | 4.74 µM (inactive) | 2.76 µM (inactive) | 5.02 µM (inactive) | 6.3 µM (inactive) | 2.59 µM (inactive) | 3.56 µM (inactive) | 3.17 µM (inactive) | 20.4 µM (inactive) | 4.14 µM (inactive)
CCOC(=O)CCC(NC(=O)c1ccc(Nc2cnc3cc(C(F)(F)F)ccc3n2)cc1)C(=O)OCC (stereo unspecified) | > 100 µM (inactive) | > 31.6 µM (inactive) | > 100 µM (inactive) | 18.5 µM (inactive) | 42 µM (inactive) | 35.9 µM (inactive) | 17.8 µM (inactive) | – | > 100 µM (inactive) | > 100 µM (inactive) | > 100 µM (inactive) | 11 µM (inactive) | 93.1 µM (inactive) | 9.48 µM (inactive) | > 57 µM (inactive) | 80.4 µM (inactive) | 23.9 µM (inactive) | – | > 100 µM (inactive)
Clc1cc(C(c2cc(Cl)sc2Cl)c2cc(Cl)sc2Cl)c(Cl)s1 | > 100 µM (inactive) | > 100 µM (inactive) | > 100 µM (inactive) | – | > 100 µM (inactive) | > 100 µM (inactive) | > 82.2 µM (inactive) | > 100 µM (inactive) | > 100 µM (inactive) | > 100 µM (inactive) | > 100 µM (inactive) | > 100 µM (inactive) | > 100 µM (inactive) | > 100 µM (inactive) | 74.1 µM (inactive) | > 100 µM (inactive) | > 100 µM (inactive) | > 100 µM (inactive) | > 100 µM (inactive)
COc1cc(OC)c2nc(C)c3c(c2c1)SCC3 | 20.5 µM (inactive) | 15.6 µM (inactive) | 31 µM (inactive) | – | 17.2 µM (inactive) | 41.4 µM (inactive) | 22.2 µM (inactive) | 20 µM (inactive) | 27 µM (inactive) | 29.6 µM (inactive) | 25.9 µM (inactive) | 18.2 µM (inactive) | > 100 µM (inactive) | 29.8 µM (inactive) | 24.7 µM (inactive) | > 100 µM (inactive) | – | 18.6 µM (inactive) | 21.1 µM (inactive)
CCCOC(=O)c1cc(C(=CCC[C@H]2CC[C@@]3(C)[C@@H](CC[C@@H]4[C@@H]3CC[C@]3(C)[C@@H](C(C)CCCC(C)C)CC[C@@H]43)C2)c2cc(Cl)c(O)c(C(=O)OCCC)c2)cc(Cl)c1O (stereo partly specified) | – | – | – | > 50 µM (inactive) | > 50 µM (inactive) | – | > 50 µM (inactive) | > 50 µM (inactive) | > 50 µM (inactive) | – | > 50 µM (inactive) | > 50 µM (inactive) | > 5 µM (inactive) | > 50 µM (inactive) | – | > 50 µM (inactive) | – | > 50 µM (inactive) | > 50 µM (inactive)
CC1=NN(c2cccc(Cl)c2)C2(SCC(=O)N2c2nc3ccccc3s2)/C1=C\c1ccccc1O (stereo unspecified) | 13.7 µM (inactive) | 20 µM (inactive) | 24.8 µM (inactive) | – | 17.4 µM (inactive) | 21.7 µM (inactive) | 14.9 µM (inactive) | 19.8 µM (inactive) | 16.7 µM (inactive) | 25.4 µM (inactive) | 11.9 µM (inactive) | 20.9 µM (inactive) | 5.65 µM (inactive) | 19.2 µM (inactive) | – | – | 10.1 µM (inactive) | 11 µM (inactive) | 20.2 µM (inactive)
O=C1OC([C@H](O)c2cccnc2)c2ccccc21 (stereo partly specified) | > 10 µM (inactive) | > 10 µM (inactive) | > 10 µM (inactive) | – | > 10 µM (inactive) | > 10 µM (inactive) | > 10 µM (inactive) | > 10 µM (inactive) | > 10 µM (inactive) | > 10 µM (inactive) | > 10 µM (inactive) | > 10 µM (inactive) | > 10 µM (inactive) | > 10 µM (inactive) | – | > 10 µM (inactive) | > 10 µM (inactive) | – | > 10 µM (inactive)
CN(C)c1ccc(C2CC(C)(O)Oc3cc4c(cc32)OCO4)cc1 (stereo unspecified) | 9.33 µM (inactive) | 38.4 µM (inactive) | 36.9 µM (inactive) | – | 1.73 µM (inactive) | 39.1 µM (inactive) | 34.5 µM (inactive) | 39.4 µM (inactive) | 35.3 µM (inactive) | 75.9 µM (inactive) | 19.7 µM (inactive) | 62.4 µM (inactive) | 48 µM (inactive) | 43.8 µM (inactive) | 67 µM (inactive) | 23.4 µM (inactive) | 25.9 µM (inactive) | – | 18.2 µM (inactive)
COc1ccc(-n2cnc3c2=NC(C)(C)NC=3C(N)=O)c(OC)c1 | > 100 µM (inactive) | > 100 µM (inactive) | > 100 µM (inactive) | – | > 100 µM (inactive) | > 100 µM (inactive) | > 100 µM (inactive) | > 100 µM (inactive) | > 100 µM (inactive) | > 100 µM (inactive) | > 100 µM (inactive) | > 100 µM (inactive) | > 100 µM (inactive) | > 100 µM (inactive) | > 100 µM (inactive) | > 100 µM (inactive) | 42.1 µM (inactive) | > 100 µM (inactive) | > 100 µM (inactive)
Cn1c(-c2ccc(-c3cc(-c4cccs4)c(-c4cccs4)n3C)cc2)cc(-c2cccs2)c1-c1cccs1 | > 100 µM (inactive) | > 100 µM (inactive) | > 100 µM (inactive) | – | > 100 µM (inactive) | > 100 µM (inactive) | > 100 µM (inactive) | > 100 µM (inactive) | > 100 µM (inactive) | – | > 100 µM (inactive) | > 100 µM (inactive) | > 100 µM (inactive) | > 100 µM (inactive) | – | > 100 µM (inactive) | – | – | > 100 µM (inactive)
Clc1sc(Cl)c2c1[C@@H](Cl)C[C@@H]2Cl | 33.6 µM (inactive) | 52.4 µM (inactive) | 84.9 µM (inactive) | > 100 µM (inactive) | 48.1 µM (inactive) | > 100 µM (inactive) | 53.5 µM (inactive) | – | 57.1 µM (inactive) | > 100 µM (inactive) | – | > 100 µM (inactive) | 48.5 µM (inactive) | > 100 µM (inactive) | 29.7 µM (inactive) | > 100 µM (inactive) | 37.4 µM (inactive) | > 100 µM (inactive) | > 100 µM (inactive)
COc1ccc(CC2C3=C(CCN2C(=O)C2CCC2)CC2(CC3)OCCO2)cc1O (stereo unspecified) | 10.5 µM (inactive) | 28.6 µM (inactive) | 55.2 µM (inactive) | – | 35.1 µM (inactive) | 21 µM (inactive) | 34.6 µM (inactive) | 31.3 µM (inactive) | 31.3 µM (inactive) | > 100 µM (inactive) | 36.6 µM (inactive) | 33.6 µM (inactive) | 22.6 µM (inactive) | 39.9 µM (inactive) | 27.9 µM (inactive) | 22.8 µM (inactive) | 62.8 µM (inactive) | 26.7 µM (inactive) | 40.8 µM (inactive)
CCN(CC)CC1CCCCN1CC(=O)N1c2ccc(Br)cc2C(=O)Nc2cccnc21 (stereo unspecified) | 57 µM (inactive) | > 100 µM (inactive) | > 100 µM (inactive) | – | > 100 µM (inactive) | > 100 µM (inactive) | > 100 µM (inactive) | > 100 µM (inactive) | – | > 100 µM (inactive) | > 100 µM (inactive) | > 100 µM (inactive) | > 100 µM (inactive) | > 100 µM (inactive) | > 100 µM (inactive) | > 100 µM (inactive) | 80.4 µM (inactive) | > 100 µM (inactive) | > 100 µM (inactive)
